Assay results from article PMC4070292 (Molecular nutrition & food research, 2012).

Experiments:
TNF-α = assay: LPS-induced TNF-α release in macrophages; type: cell-based, murine; settings: 100 ng/mL LPS
NF-κB = NF-κB SEAP reporter gene assay in LPS-stimulated macrophages; type: cell-based, murine; settings: 16 h; for effect on LPS-stimulated NF-κB activity: 100 ng/mL LPS, 25 μM; for effect on NF-κB activity without LPS: compound alone with diluent control; for decrease of NF-κB activity versus control / effect on LPS-induced NF-κB activity: LPS; for decrease of NF-κB activity versus control: 50 μM; for effect on LPS-induced NF-κB activity: doses as high as 100 μM
[1] = diet containing 0.2% pure apigenin for 7 days ref 47; cited from earlier work
[2] = rats, 14 mg luteolin/kg body weight by gavage, after 1 h ref 48; cited from earlier work

For COc1cc(-c2cc(=O)c3c(O)cc(O)cc3o2)ccc1O [chrysoeriol, Chrysoeriol], the “effect on LPS-induced TNF-α” value (TNF-α; 8 h, doses as low as 10 μM) was “significant reduction”, the “effect on LPS-stimulated NF-κB activity” value (NF-κB) was “significantly reduced” and the “effect on NF-κB activity without LPS” value (NF-κB) was “no effect”.

For O=c1cc(-c2ccc(O)cc2)oc2cc(O)cc(O)c12 [apigenin], the “effect on LPS-induced TNF-α” value (TNF-α; 8 h, doses as low as 10 μM) is given as “significant reduction” and the “apigenin in mouse plasma” value [1] is given as 90 nM.

In the case of O=c1cc(-c2ccc(O)c(O)c2)oc2cc(O[C@@H]3O[C@H](CO)[C@@H](O)[C@H](O)[C@H]3O)cc(O)c12 [luteolin 7-O-glucoside], the “effect on LPS-induced TNF-α” value (TNF-α; 10–25 μM, data not shown) is reported as “no effect”, the “effect on LPS-induced TNF-α” value (TNF-α; 8 h, doses as high as 100 μM) is reported as “no effect” and the “decrease of NF-κB activity versus control” value (NF-κB) is reported as “not statistically significant”. For the same compound, the “effect on LPS-induced NF-κB activity” value (NF-κB) was “no effect” and the “effect on NF-κB activity without LPS” value (NF-κB) was “no effect”.

For O=c1cc(-c2ccc(O)c(O)c2)oc2cc(O)cc(O)c12 [luteolin], the “effect on LPS-induced TNF-α” value (TNF-α; 8 h, doses as low as 10 μM) was “significant reduction”, the “effect on LPS-stimulated NF-κB activity” value (NF-κB) was “significantly reduced” and the “effect on NF-κB activity without LPS” value (NF-κB) was “no effect”. The peak plasma concentration [2] was 6.9 µM.

With O=c1cc(-c2ccc(O)cc2)oc2cc(O[C@@H]3O[C@H](CO)[C@@H](O)[C@H](O)[C@H]3O)cc(O)c12 [apigenin 7-O-glucoside] the “effect on LPS-induced TNF-α” value (TNF-α; 10–25 μM, data not shown) was “no effect”, the “effect on LPS-induced TNF-α” value (TNF-α; 8 h, doses as high as 100 μM) was “no effect” and the “decrease of NF-κB activity versus control” value (NF-κB) was “not statistically significant”. For the same compound, the “effect on LPS-induced NF-κB activity” value (NF-κB) was “no effect” and the “effect on NF-κB activity without LPS” value (NF-κB) was “no effect”.
